Where a name gives a salt, the structure may show the parent alone.
Legend:
[1] = molecular target: T1, human recombinant serotonin 5-HT2A receptor (Homo sapiens, UniProt P28223); assay: Binding affinity for serotonin 5-HT2A receptor ([3H]Ketanserin); settings: CHO-K1 expressed receptor, 1 nM [3H]Ketanserin
T1 construct: purchased PerkinElmer Life and Analytical Sciences, USA; host or cells: CHO-K1
Procedure, shortened: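 Membranes from CHO-K1 cells expressing recombinant receptor (5 ug/well) incubated 60 min at 27 with 1 nM [3H]ketanserin in 50 mM Tris-HCl pH 7.4, 4 mM CaCl2, 0.1% ascorbic acid; mianserin 20 uM defined nonspecific binding. Filtration and counting; IC50 by nonlinear regression over 7-8 concentrations in duplicate.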

[2] = molecular target: T2, human recombinant 5-HT2C receptor (Homo sapiens, UniProt P28335); assay: Binding affinity for serotonin 5-HT2C receptor ([3H]Mesulergine); settings: CHO-K1 membranes, 1.3 nM [3H]Mesulergine
T2 construct: purchased PerkinElmer
T2 sequence (P28335 33-458): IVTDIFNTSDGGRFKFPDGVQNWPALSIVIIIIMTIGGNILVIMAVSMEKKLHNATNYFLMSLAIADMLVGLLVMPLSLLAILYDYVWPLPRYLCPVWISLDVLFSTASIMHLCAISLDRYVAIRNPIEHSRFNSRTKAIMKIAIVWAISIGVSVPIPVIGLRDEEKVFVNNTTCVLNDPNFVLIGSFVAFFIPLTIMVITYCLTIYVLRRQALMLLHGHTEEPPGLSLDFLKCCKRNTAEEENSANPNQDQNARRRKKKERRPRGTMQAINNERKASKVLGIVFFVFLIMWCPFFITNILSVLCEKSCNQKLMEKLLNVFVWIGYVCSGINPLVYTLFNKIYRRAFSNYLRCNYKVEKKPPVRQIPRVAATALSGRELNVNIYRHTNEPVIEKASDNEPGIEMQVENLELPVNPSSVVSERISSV
Procedure, shortened: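 Competition binding with [3H]mesulergine; nonspecific binding defined with 100 uM mianserin. Incubation 60 min at 27, stopped by rapid filtration onto glass fiber filters presoaked in 0.5% PEI.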

[3] = molecular target: T3, human serotonin transporter (Homo sapiens, UniProt P31645); assay: Binding affinity for serotonin transporter ([3H]Imipramine); settings: HEK-293 membranes, 2 nM [3H]Imipramine
T3 construct: purchased PerkinElmer; host or cells: HEK-293
Procedure, shortened: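 Membranes from HEK-293 cells expressing human serotonin transporter (5 ug/well) incubated with compound and 2 nM [3H]imipramine in 50 mM Tris-HCl pH 7.4, 120 mM NaCl, 5 mM KCl, 30 min at 27. Bound ligand separated by filtration onto glass fiber filters presoaked in 0.5% PEI, washed with ice-cold Tris-HCl/0.9% NaCl.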

T1 sequence (P28223 whole entry): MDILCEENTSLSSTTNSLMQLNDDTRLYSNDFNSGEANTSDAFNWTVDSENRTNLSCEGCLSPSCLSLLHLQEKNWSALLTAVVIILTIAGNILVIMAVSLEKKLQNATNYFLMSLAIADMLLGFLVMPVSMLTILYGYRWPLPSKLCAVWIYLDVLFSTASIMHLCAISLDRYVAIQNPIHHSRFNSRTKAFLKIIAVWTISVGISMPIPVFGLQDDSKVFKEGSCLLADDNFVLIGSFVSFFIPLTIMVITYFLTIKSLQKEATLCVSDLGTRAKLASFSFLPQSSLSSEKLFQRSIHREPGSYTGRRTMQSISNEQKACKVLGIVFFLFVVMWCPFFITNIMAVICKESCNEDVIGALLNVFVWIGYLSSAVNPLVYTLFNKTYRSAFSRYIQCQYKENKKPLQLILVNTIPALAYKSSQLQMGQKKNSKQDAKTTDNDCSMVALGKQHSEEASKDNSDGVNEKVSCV
T3 sequence (P31645 whole entry): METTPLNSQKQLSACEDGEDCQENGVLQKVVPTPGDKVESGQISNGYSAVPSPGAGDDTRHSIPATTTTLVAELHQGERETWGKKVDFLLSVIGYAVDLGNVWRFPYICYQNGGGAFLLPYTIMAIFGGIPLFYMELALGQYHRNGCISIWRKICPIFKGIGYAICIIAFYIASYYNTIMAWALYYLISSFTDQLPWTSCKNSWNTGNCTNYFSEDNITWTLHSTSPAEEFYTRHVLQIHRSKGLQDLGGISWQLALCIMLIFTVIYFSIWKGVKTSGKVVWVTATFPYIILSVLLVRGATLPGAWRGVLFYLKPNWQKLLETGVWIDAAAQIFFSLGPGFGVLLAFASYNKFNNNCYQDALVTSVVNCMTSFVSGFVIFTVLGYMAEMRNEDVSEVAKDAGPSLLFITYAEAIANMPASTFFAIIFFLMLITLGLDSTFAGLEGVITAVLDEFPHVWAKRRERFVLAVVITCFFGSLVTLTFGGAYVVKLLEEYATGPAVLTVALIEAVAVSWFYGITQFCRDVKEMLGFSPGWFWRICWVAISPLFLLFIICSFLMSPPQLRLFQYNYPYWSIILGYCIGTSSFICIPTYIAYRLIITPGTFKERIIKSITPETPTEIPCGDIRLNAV

Structure (SMILES)	IC50 [1]	IC50 [2]	IC50 [3]
CCCn1c(C)c(C(=O)NCCCN2CCN(c3cccc(Cl)c3Cl)CC2)c(C)c1-c1ccccc1 [Example 81, N-(3-(4-(2,3-dichlorophenyl)piperazin-1-yl)propyl)-2,4-dimethyl-5-phenyl-1-propyl-1H-pyrrole-3-carboxamide hydrochloride]	25 nM	75 nM	78 nM
CCCn1c(-c2cccc(OC)c2)cc(C(=O)NCCCN2CCN(c3cccc(Cl)c3Cl)CC2)c1C [Example 82, N-(3-(4-(2,3-dichlorophenyl)piperazin-1-yl)propyl)-5-(3-methoxyphenyl)-2-methyl-1-propyl-1H-pyrrole-3-carboxamide hydrochloride]	138 nM	43 nM	196 nM
COc1cccc(-c2cc(C(=O)NCCCN3CCN(c4cccc(Cl)c4Cl)CC3)c(C)[nH]2)c1 [Example 83, N-(3-(4-(2,3-dichlorophenyl)piperazin-1-yl)propyl)-5-(3-methoxyphenyl)-2-methyl-1H-pyrrole-3-carboxamide hydrochloride]	20 nM	20 nM	59 nM
CCCn1c(-c2ccccc2)cc(C(=O)NCCCN2CCN(c3ccccc3OC)CC2)c1C [Example 84, N-(3-(4-(2-Methoxyphenyl)piperazin-1-yl)propyl)-2-methyl-5-phenyl-1-propyl-1H-pyrrole-3-carboxamide]	953 nM	1410 nM	1080 nM
CCCn1c(-c2ccccc2)cc(C(=O)NCCCN2CCN(c3ccc(OC)cc3)CC2)c1C [Example 87, N-(3-(4-(4-methoxyphenyl)piperazin-1-yl)propyl)-2-methyl-5-phenyl-1-propyl-1H-pyrrole-3-carboxamide dihydrochloride]	647 nM	4830 nM	628 nM
CCCn1c(-c2ccccc2)cc(C(=O)NCCCN2CCN(c3ccccc3Br)CC2)c1C [Example 88, N-(3-(4-(2-bromophenyl)piperazin-1-yl)propyl)-2-methyl-5-phenyl-1-propyl-1H-pyrrole-3-carboxamide]	221 nM	633 nM	225 nM
CCCn1c(-c2ccccc2)cc(C(=O)NCCCN2CCN(c3ccccc3C#N)CC2)c1C [Example 90, N-(3-(4-(2-cyanophenyl)piperazin-1-yl)propyl)-2-methyl-5-phenyl-1-propyl-1H-pyrrole-3-carboxamide hydrochloride]	269 nM	637 nM	223 nM
Cc1[nH]c(-c2ccccn2)cc1C(=O)NCCCN1CCN(c2cccc(Cl)c2Cl)CC1 [Example 91, N-(3-(4-(2,3-dichlorophenyl)piperazin-1-yl)propyl)-2-methyl-5-(pyridin-2-yl)-1H-pyrrole-3-carboxamide dihydrochloride]	21 nM	211 nM	28 nM
Cc1c(C(=O)NCCCN2CCN(c3cccc(Cl)c3Cl)CC2)cc(-c2ccccn2)n1C [Example 92, N-(3-(4-(2,3-dichlorophenyl)piperazin-1-yl)propyl)-1,2-dimethyl-5-(pyridin-2-yl)-1H-pyrrole-3-carboxamide dihydrochloride]	43 nM	267 nM	110 nM
CCCn1c(-c2ccccn2)cc(C(=O)NCCCN2CCN(c3cccc(Cl)c3Cl)CC2)c1C [Example 93, N-(3-(4-(2,3-dichlorophenyl)piperazin-1-yl)propyl)-2-methyl-1-propyl-5-(pyridin-2-yl)-1H-pyrrole-3-carboxamide dihydrochloride]	58 nM	639 nM	397 nM
CCCn1c(-c2ccccn2)cc(C(=O)NCCN2CCN(c3cccc(Cl)c3Cl)CC2)c1C [Example 96, N-(2-(4-(2,3-dichlorophenyl)piperazin-1-yl)ethyl)-2-methyl-1-propyl-5-(pyridin-2-yl)-1H-pyrrole-3-carboxamide dihydrochloride]	410 nM	619 nM	381 nM
Cc1c(C(=O)NCCCN2CCN(c3cccc(Cl)c3Cl)CC2)cc(-c2cccnc2)n1C [Example 100, N-(3-(4-(2,3-dichlorophenyl)piperazin-1-yl)propyl)-1,2-dimethyl-5-(pyridin-3-yl)-1H-pyrrole-3-carboxamide]	49 nM	209 nM	92 nM
CCCn1c(-c2cccnc2)cc(C(=O)NCCCN2CCN(c3cccc(Cl)c3Cl)CC2)c1C [Example 101, N-(3-(4-(2,3-dichlorophenyl)piperazin-1-yl)propyl)-2-methyl-1-propyl-5-(pyridin-3-yl)-1H-pyrrole-3-carboxamide]	46 nM	344 nM	133 nM
Cc1c(C(=O)NCCCN2CCN(c3cccc(Cl)c3Cl)CC2)cc(-c2ccncc2)n1C [Example 106, N-(3-(4-(2,3-dichlorophenyl)piperazin-1-yl)propyl)-1,2-dimethyl-5-(pyridin-4-yl)-1H-pyrrole-3-carboxamide]	39 nM	175 nM	85 nM
CCCn1c(-c2ccncc2)cc(C(=O)NCCCN2CCN(c3cccc(Cl)c3Cl)CC2)c1C [Example 107, N-(3-(4-(2,3-dichlorophenyl)piperazin-1-yl)propyl)-2-methyl-1-propyl-5-(pyridin-4-yl)-1H-pyrrole-3-carboxamide]	34 nM	420 nM	78 nM
O=C(NCCCN1CCN(c2cccc(Cl)c2Cl)CC1)c1cc(-c2ccccc2)[nH]c1Cl [Example 114, 2-chloro-N-(3-(4-(2,3-dichlorophenyl)piperazin-1-yl)propyl)-5-phenyl-1H-pyrrole-3-carboxamide]	22 nM	107 nM	59 nM
CCCn1c(-c2ccccc2)cc(C(=O)NCCCN2CCN(c3cccc(Cl)c3Cl)CC2)c1Cl [Example 116]	69 nM	136 nM	1090 nM
O=C(NCCCN1CCN(c2cccc(Cl)c2Cl)CC1)c1c[nH]c(-c2ccccc2)c1 [Example 124, N-(3-(4-(2,3-dichlorophenyl)piperazin-1-yl)propyl)-5-phenyl-1H-pyrrole-3-carboxamide]	23 nM	106 nM	54 nM
Cc1[nH]c(C(C)(C)C)cc1C(=O)NCCCN1CCN(c2cccc(Cl)c2Cl)CC1 [Example 127, 5-tert-butyl-N-(3-(4-(2,3-dichlorophenyl)piperazin-1-yl)propyl)-2-methyl-1H-pyrrole-3-carboxamide hydrochloride]	107 nM	1390 nM	860 nM
Cc1c(C(=O)NCCCN2CCN(c3cccc(Cl)c3Cl)CC2)cc(C(C)(C)C)n1C [Example 128, 5-tert-butyl-N-(3-(4-(2,3-dichlorophenyl)piperazin-1-yl)propyl)-1,2-dimethyl-1H-pyrrole-3-carboxamide]	163 nM	1020 nM	375 nM
C=CCCc1cc(C(=O)NCCCN2CCN(c3cccc(Cl)c3Cl)CC2)c(C)[nH]1 [Example 135, 5-(but-3-enyl)-N-(3-(4-(2,3-dichlorophenyl)piperazin-1-yl)propyl)-2-methyl-1H-pyrrole-3-carboxamide]	65 nM	157 nM	144 nM
C=CCCc1cc(C(=O)NCCCN2CCN(c3cccc(Cl)c3Cl)CC2)c(C)n1C [Example 136, 5-(but-3-enyl)-N-(3-(4-(2,3-dichlorophenyl)piperazin-1-yl)propyl)-1,2-dimethyl-1H-pyrrole-3-carboxamide]	108 nM	173 nM	347 nM
CCCCc1cc(C(=O)NCCCN2CCN(c3cccc(Cl)c3Cl)CC2)c(C)[nH]1 [Example 137, 5-butyl-N-(3-(4-(2,3-dichlorophenyl)piperazin-1-yl)propyl)-2-methyl-1H-pyrrole-3-carboxamide]	68 nM	133 nM	62 nM
CCCCc1cc(C(=O)NCCCN2CCN(c3cccc(Cl)c3Cl)CC2)c(C)n1C [Example 138, 5-butyl-N-(3-(4-(2,3-dichlorophenyl)piperazin-1-yl)propyl)-1,2-dimethyl-1H-pyrrole-3-carboxamide]	134 nM	268 nM	334 nM
Cc1c(C(=O)NCCCN2CCN(c3ccc(Cl)cc3Cl)CC2)cc(-c2ccccc2)n1C [Example 154, N-(3-(4-(2,4-Dichlorophenyl)piperazin-1-yl)propyl)-1,2-dimethyl-5-phenyl-1H-pyrrole-3-carboxamide hydrochloride]	213 nM	349 nM	23 nM

From patent US8895558B2, “Arylpiperazine-containing pyrrole 3-carboxamide derivatives for treating depressive disorders” (Green Cross Corporation, priority 2008, dated 2014)
